Patent publication US4490369A, “Benzazepine derivatives, their pharmaceutical compositions and method of use” (Dr. Karl Thomae Gesellschaft mit beschrankter Haftung, priority 1981, dated 1984)
Counter-ions that a name gives are not always drawn.

Key:
[1] = tested on: rats; assay: Effect on heart rate in rats; assay type: in vivo, rat; details: anesthetized rats
Description: The effect of the test substances on heart rate was investigated in two rats with an average weight of 250 to 300 gm for each dose. The rats were anesthetized with pentobarbital (50 mg/kg i.p. and 20 mg/kg s.c.). The test substances were injected in aqueous solution into the jugular vein (0.1 ml/100 gm). The blood pressure was measured using a cannula inserted in a carotid artery and the heart rate was recorded from an ECG (IInd or IIIrd reading) obtained using needle electrodes. The heart rate of the animals in the control period was between 350 and 400 beats per minute (b/min).

[2] = tested on: cats; assay: Effect on heart rate in cats; assay type: in vivo, cat; details: anesthetized cats, 1.0 mg/kg i.v.; for Half-life: heart rate effect
Description: The cats were anesthetized with Nembutal (30 mg/kg i.p.) and chloralose urethane (40 mg/ml of chloralose+200 mg/ml of urethane, as required). The compound to be tested was injected in aqueous solution into the vena saphena or into the duodenum. The heart rate was recorded before and after the admiministration of the substance by means of a Grass tachograph from the electrocardiagram (taken from and chest wall) on a Grass polygraph.

[3] = Acute toxicity in mice; details: mouse, in vivo, observation period 14 days
Description: The acute toxicity of the test compound was determined in mice (observationperiod: 14 days) after intravenous and peroral administration: […]

Row | SMILES | Reduction in Heart Rate (20 Minutes) After Application of the Compound ([1]; 1.0 mg/kg i.v.) [Beats/Minutes] | Reduction in Heart Rate (20 Minutes) After Application of the Compound ([1]; 2.5 mg/kg i.v.) [Beats/Minutes] | Reduction in Heart Rate (20 Minutes) After Application of the Compound ([1]; 5.0 mg/kg i.v.) [Beats/Minutes] | Reduction in Heart Rate [2] [%] | Half-life [2] [h] | further results
1 | COc1ccc(CCN(C)CCCN2CCc3cc(OC)c(OC)cc3CC2=S)cc1OC [M, 1-[7,8-Dimethoxy-1,3,4,5-tetrahydro-2H-3-benzazepin-2-thion-3-yl]-N-[N-methyl-N-(2-{3,4-dimethoxy-phenyl}-ethyl)-amino]-propane] | -73 | -134 | -255 |  |  | 
2 | COc1cc2c(cc1OC)CC(=O)N(CCCN(C)CCCCc1ccc(N(C)C)cc1)CC2 [Q, 1-[7,8-Dimethoxy-1,3,4,5-tatrahydro-2H-3-benzazepin-2-on-3-yl]-3-N-methyl-N-(4-{4-dimethylaino-phenyl}butyl)-amino]-propane hydrobromide] | -94 | -91 | -123 |  |  | 
3 | COc1ccc(CCNCCCN2CCc3cc(OC)c(OC)cc3CC2=O)cc1OC.Cl [E, 1-[7,8-Dimethoxy-1,3,4,5-tetrahydro-2H-3-benzazepin-2-on-3-yl]-3-[N-(2-{3,4-dimethoxy-phenyl}-ethyl)-amino]-propane hydrochloride] |  |  |  | -45 | 1.5 | 
4 | COc1ccc(C(O)CN(C)CCCN2CCc3cc(OC)c(OC)cc3CC2=O)cc1OC (stereo not shown) [N, 1-[7,8-Dimethoxy-1,3,4,5-tetrahydro-2H-3-benzazepin-2-on-3-yl]-3-[N-methyl-N-(2-hydroxy-2-{3,4-dimethoxyphenyl}-ethyl)-amino]-propane] |  | -137 | -173 |  |  | 
5 | COc1ccc(CCN(C)CCCN2CCc3cc(OC)c(OC)cc3C(=O)C2=O)cc1OC [C, 1-[7,8-Dimethoxy-1,3,4,5-tetrahydro-2H-3-benzazepine-1,2-dion-3-yl]-3-[N-methyl-(2-}3,4-dimethoxy-phenyl}-ethyl)-amino]-propane hydrochloride] |  |  |  | -44 | 1.5 | 
6 | COc1ccc(CCN(C)CCCN2CCCc3cc(OC)c(OC)cc3C2=O)cc1OC [U, 1-[7,8-Dimethoxy-1,3,4,5-tetrahydro-5H-2-benzazepin-1-on-2-yl]-3-[N-methyl-N-(2-{3,4-dimethoxy-phenyl}-ethyl)-amino]-propane hydrochloride, reference compound] |  |  | -18 | -8.2 | 0.217 | 
7 | COc1cc2c(cc1OC)CC(=O)N(CCCN(C)CCCc1cc(Cl)c(N)c(Cl)c1)CC2 [T, 1-[7,8-Dimethoxy-1,3,4,5-tetrahydro-2H-3-benzazepin-2-on-3-yl]-3-[N-methyl-N-(3-{4-amino-3,5-dichlorophenyl}-propyl)-amino]-propane] |  |  | -175 |  |  | 
8 | COc1cc2c(cc1OC)CC(=O)N(CCCN(C)CCc1cc(Cl)c(N)c(Cl)c1)CC2 [F, 1-[7,8-Dimethoxy-1,3,4,5-tetrahydro-2H-3-benzazepin-2-on-3-yl]-3-[N-methyl-N-(2-{4-amino-3,5-dichloro-phenyl}-ethyl)-amino]-propane] |  |  |  | -51 | 2 | 
9 | COc1ccc(CCN(C)CCCN2CCc3cc(OC)c(OC)cc3C(O)C2=O)cc1OC (stereo not shown) [O] | -83 | -73 | -117 |  |  | 
10 | COc1cc2c(cc1OC)CC(=O)N(CCCN(C)CCc1ccc(N)c([N+](=O)[O-])c1)CC2 [P, 1-[7,8-Dimethoxy-1,3,4,5-tetrahydro-2H-3-benzazepin-2-on-3-yl]-3-[N-methyl-N-(2-{4-aino-3-nitro-phenyl}-ethyl)-amino]-propane hydrochloride] |  |  | -130 |  |  | 
11 | COc1ccc(CCN(C)CCCN2CCc3cc(OC)c(OC)cc3NC2=O)cc1OC [D, 1-[7,8-Dimethoxy-1,3,4,5-tetrahydro-2H-1,3-benzodiazepin-2-on-3-yl]-3-[N-methyl-(2-{3,4-dimethoxy-phenyl}-ethyl)-amino]-propane] |  |  |  | -41 | 1.33 | 
12 | COc1ccc(CCN(C)CCCN2C=Cc3cc(OC)c(OC)cc3CC2=O)cc1OC.Cl [B, 1-[7,8-Dimethoxy-1,3-dihydro-2H-3-benzazepin-2-on-3-yl]-3-[N-methyl-N-(2-{3,4-dimethoxy-phenyl}-ethyl)-amino]-propane hydrochloride] |  |  |  | -45 | 2 | 
13 | COc1cc(CCCCCN(C)CCCN2CCc3cc(OC)c(OC)cc3CC2=O)cc(OC)c1 [S, 1-[7,8-Dimethoxy-1,3,4,5-tetrahydro-2H-3-benzazepin-2-on-3-yl]-3-[N-methyl-N-(5-{3,5-dimethoxy-phenyl}-pentyl)-amino]-propane] |  |  | -18 |  |  | 
14 | COc1cc2c(cc1OC)CC(=O)N(CCCN(C)CCc1ccccc1)CC2.Cl.Cl [R, 1-[7,8-Dimethoxy-1,3,4,5-tetrahydro-2H-3-benzazepin-2-on-3-yl]-3-[N-methyl-N-(2-phenyl-ethyl)-amino]-propane dihydrochloride] | -80 | -110 | -135 |  |  | 
15 | COc1ccc(CCCN(C)CCCN2CCc3cc(OC)c(OC)cc3CC2=O)cc1OC.Cl [L, 1-[7,8-Dimethoxy-1,3,4,5-tetrahydro-2H-3-benzazepin-2-on-3-yl]-3-[N-methyl-N-(3-{3,4-dimethoxy-phenyl}-propyl)-amino]-propane hydrochloride] | -51 | -85 | -183 |  |  | 
16 | COc1ccc(CCN(C)CCCN2CCc3cc(OC)c(OC)cc3CC2=O)cc1OC.Cl.Cl [A, 1-[7,8-Dimethoxy-1,3,4,5-tetrahydro-2H-3-benzazepin-2-on-3-yl]-3-[N-methyl-N-(2-{3,4-dimethoxy-phenyl}-ethyl)-amino]-propane dihydrochloride] |  |  |  | -55 | 2 | LD50 at 336 h ([3]; iv): 89 mg/kg; LD50 at 336 h ([3]; po): 1350 mg/kg
